Experimental data taken from patent publication US9944666B2, “Compounds that are S1P modulating agents and/or ATX modulating agents” (BIOGEN MA INC., priority 2012, dated 2018).

Each compound was assayed against T1, Human ATX protein (Homo sapiens, UniProt Q13822) (assay: ATX biochemical FRET assay with FS-3 substrate). Settings: FS-3 2 μM, ATX 1.0 μg/mL, room temperature 2 hours, fluorescence 485/538 nm.
T1 construct: made in house
In short: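 Purified human ATX (1.0 μg/mL final) preincubated with compound 30 min at room temperature in Tris pH 7.4 buffer with NaCl, KCl, CaCl2, MgCl2 and 1 mg/mL fatty acid-free BSA. FS-3 added to 2 μM final; 2 h at room temperature in the dark, fluorescence at ex 485/em 538 nm.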

`N#Cc1c(O[C@H]2CC[C@@H](C(F)(F)F)CC2)ccc2cc(CN3C4CCCC3CC(C(=O)O)C4)ccc12` (stereo partly drawn) [Example 229, 9-((5-cyano-6-((cis-4-(trifluoromethyl)cyclohexyl)oxy)naphthalen-2-yl)methyl)-9-azabicyclo[3.3.1]nonane-3-carboxylic acid] and `O=C(O)C1CC2CCCC(C1)N2Cc1cc2ccc(O[C@H]3CC[C@@H](C(F)(F)F)CC3)c(Br)c2cn1` (stereo partly drawn) [Example 274, 9-((8-bromo-7-((cis-4-(trifluoromethyl)cyclohexyl)oxy)isoquinolin-3-yl)methyl)-9-azabicyclo[3.3.1]nonane-3-carboxylic acid] cannot be ordered by IC50: ≤ 0.1 µM for the first, ≤ 0.25 µM for the second.

`O=C(O)C1CC2CCCC(C1)N2Cc1ccc2c(C(F)(F)F)c(N[C@H]3CC[C@@H](C(F)(F)F)CC3)ccc2c1` (stereo partly drawn) [Example 230, 9-((5-(trifluoromethyl)-6-((cis-4-(trifluoromethyl)cyclohexyl)amino)naphthalen-2-yl)methyl)-9-azabicyclo[3.3.1]nonane-3-carboxylic acid] and `O=C(O)C1CC2CCCC(C1)N2C(=O)c1ccc2c(C(F)(F)F)c(N[C@H]3CC[C@@H](C(F)(F)F)CC3)ccc2c1` (stereo partly drawn) [Example 245, 9-(5-(trifluoromethyl)-6-((cis-4-(trifluoromethyl)cyclohexyl)amino)-2-naphthoyl)-9-azabicyclo[3.3.1]nonane-3-carboxylic acid] cannot be ordered by IC50: ≤ 0.1 µM for the first, ≤ 0.1 µM for the second.

`COC(=O)C1CC2CCC(C1)N2C(=O)c1ccc2c(C(F)(F)F)c(N[C@H]3CC[C@@H](C(F)(F)F)CC3)ccc2c1` (stereo partly drawn) [Example 231, methyl 8-(5-(trifluoromethyl)-6-((cis-4-(trifluoromethyl)cyclohexyl)amino)-2-naphthoyl)-8-azabicyclo[3.2.1]octane-3-carboxylate] and `COC(=O)C1CC2CCCC(C1)N2C(=O)c1ccc2c(C(F)(F)F)c(N[C@H]3CC[C@@H](C(F)(F)F)CC3)ccc2c1` (stereo partly drawn) [Example 244, methyl 9-(5-(trifluoromethyl)-6-((cis-4-(trifluoromethyl)cyclohexyl)amino)-2-naphthoyl)-9-azabicyclo[3.3.1]nonane-3-carboxylate] cannot be ordered by IC50: ≤ 0.25 µM for the first, ≤ 0.1 µM for the second.

`CC(c1ccc2c(Cl)c(O[C@H]3CC[C@@H](C(F)(F)F)CC3)ccc2c1)N1C2CCC1CC(C(=O)O)C2` (stereo partly drawn) [Example 234, 8-(1-(5-chloro-6-((cis-4-(trifluoromethyl)cyclohexyl)oxy)naphthalen-2-yl)ethyl)-8-azabicyclo[3.2.1]octane-3-carboxylic acid] and `CC(c1ccc2c(Cl)c(O[C@H]3CC[C@@H](C(F)(F)F)CC3)ccc2c1)N1C2CCCC1CC(C(=O)O)C2` (stereo partly drawn) [Example 235, 9-(1-(5-chloro-6-((cis-4-(trifluoromethyl)cyclohexyl)oxy)naphthalen-2-yl)ethyl)-9-azabicyclo[3.3.1]nonane-3-carboxylic acid] cannot be ordered by IC50: ≤ 0.1 µM for the first, ≤ 0.1 µM for the second.

`CCC(c1ccc2c(Cl)c(O[C@H]3CC[C@@H](CC)CC3)ccc2c1)N1C2CCC1CC(C(=O)O)C2` (stereo partly drawn) [Example 236, 8-(1-(5-chloro-6-((cis-4-ethylcyclohexyl)oxy)naphthalen-2-yl)propyl)-8-azabicyclo[3.2.1]octane-3-carboxylic acid] and `CCC(c1ccc2c(Cl)c(O[C@H]3CC[C@@H](CC)CC3)ccc2c1)N1C2CCCC1CC(C(=O)O)C2` (stereo partly drawn) [Example 237, 9-(1-(5-chloro-6-((cis-4-ethylcyclohexyl)oxy)naphthalen-2-yl)propyl)-9-azabicyclo[3.3.1]nonane-3-carboxylic acid] cannot be ordered by IC50: ≤ 0.1 µM for the first, ≤ 0.25 µM for the second.

`CC(C)(C)[C@H]1CC[C@H](Nc2ncc3cc(C(=O)N4C5CCC4CC(C(=O)O)C5)ccc3n2)CC1` (stereo partly drawn) [Example 262, 8-(2-((trans-4-(tert-butyl)cyclohexyl)amino)quinazoline-6-carbonyl)-8-azabicyclo[3.2.1]octane-3-carboxylic acid] and `CC(C)(C)[C@H]1CC[C@@H](Nc2ncc3cc(C(=O)N4C5CCC4CC(C(=O)O)C5)ccc3c2Cl)CC1` (stereo partly drawn) [Example 272, 8-(3-((cis-4-(tert-butyl)cyclohexyl)amino)-4-chloroisoquinoline-7-carbonyl)-8-azabicyclo[3.2.1]octane-3-carboxylic acid] cannot be ordered by IC50: ≤ 0.1 µM for the first, ≤ 0.25 µM for the second.

`C[C@H]1CC[C@H](Nc2cc3ccc(C(=O)N4C5CCCC4CC(C(=O)O)C5)cc3cn2)CC1` (stereo partly drawn) [Example 263, 9-(3-((trans-4-methylcyclohexyl)amino)isoquinoline-7-carbonyl)-9-azabicyclo[3.3.1]nonane-3-carboxylic acid] and `C[C@H]1CC[C@H](Nc2cc3ccc(C(=O)N4C5CCC4CC(C(=O)O)C5)cc3cn2)CC1` (stereo partly drawn) [Example 264, 8-(3-((trans-4-methylcyclohexyl)amino)isoquinoline-7-carbonyl)-8-azabicyclo[3.2.1]octane-3-carboxylic acid] cannot be ordered by IC50: ≤ 0.5 µM for the first, ≤ 0.5 µM for the second.

`C[C@H]1CC[C@@H](Nc2ncc3cc(CN4C5CCCC4CC(C(=O)O)C5)ccc3c2Cl)CC1` (stereo partly drawn) [Example 271, 9-((4-chloro-3-((cis-4-methylcyclohexyl)amino)isoquinolin-7-yl)methyl)-9-azabicyclo[3.3.1]nonane-3-carboxylic acid] and `C[C@H]1CC[C@@H](Oc2ccc3cc(CN4C5CCCC4CC(C(=O)O)C5)ncc3c2Br)CC1` (stereo partly drawn) [Example 279, 9-((8-bromo-7-((cis-4-methylcyclohexyl)oxy)isoquinolin-3-yl)methyl)-9-azabicyclo[3.3.1]nonane-3-carboxylic acid] cannot be ordered by IC50: ≤ 0.5 µM for the first, ≤ 0.5 µM for the second.

`CC[C@H]1CC[C@@H](Oc2ccc3nc(NC4C5CCC4CC(C(=O)O)C5)ccc3c2C(F)(F)F)CC1` (stereo partly drawn) [Example 280, 8-((6-((cis-4-ethylcyclohexyl)oxy)-5-(trifluoromethyl)quinolin-2-yl)amino)bicyclo[3.2.1]octane-3-carboxylic acid] and `CC[C@H]1CC[C@@H](Oc2ccc3nc(NC4C5CCCC4CC(C(=O)O)C5)ccc3c2Cl)CC1` (stereo partly drawn) [Example 281, 9-((5-chloro-6-((cis-4-ethylcyclohexyl)oxy)quinolin-2-yl)amino)bicyclo[3.3.1]nonane-3-carboxylic acid] cannot be ordered by IC50: ≤ 0.1 µM for the first, ≤ 0.1 µM for the second.

`O=C(O)C1CC2CC(C(=O)O)CC(C1)N2Cc1ccc2c(C(F)(F)F)c(O[C@H]3CC[C@@H](C(F)(F)F)CC3)ccc2c1` (stereo partly drawn) [Example 282, (1R,3S,5S)-9-((5-(trifluoromethyl)-6-((cis-4-(trifluoromethyl)cyclohexyl)oxy)naphthalen-2-yl)methyl)-9-azabicyclo[3.3.1]nonane-3,7-dicarboxylic acid] and `NC1CC2CC(C(=O)O)CC(C1)N2Cc1ccc2c(C(F)(F)F)c(O[C@H]3CC[C@@H](C(F)(F)F)CC3)ccc2c1` (stereo partly drawn) [Example 284, 9-(1R,3R,5S)-7-amino-9-((5-(trifluoromethyl)-6-((cis-4-(trifluoromethyl)cyclohexyl)oxy)naphthalen-2-yl)methyl)-9-azabicyclo[3.3.1]nonane-3-carboxylic acid] cannot be ordered by IC50: ≤ 0.1 µM for the first, ≤ 0.25 µM for the second.

For `O=C(O)C12CC3CC(C1)N(Cc1ccc4c(C(F)(F)F)c(O[C@H]5CC[C@@H](C(F)(F)F)CC5)ccc4c1)C(C3)C2` [Example 283, 9-(1R,3S,5S,7S)-2-((5-(trifluoromethyl)-6-((cis-4-(trifluoromethyl)cyclohexyl)oxy)naphthalen-2-yl)methyl)-2-azaadamantane-5-carboxylic acid], the IC50 was ≤ 0.1 µM.
